In ChEMBL document CHEMBL5223088, “EP2 Antagonists (2011-2021): A Decade's Journey from Discovery to Therapeutics” (J Med Chem, 2021):
≈ marks a conversion by molar mass, not a printed value. Each block holds one compound with its values, some of them ahead of it.

What was measured:
[1] = target: T1, Prostaglandin E2 receptor EP2 subtype (Homo sapiens, UniProt P43116); assay: Binding affinity to EP2 receptor in human mast cell assessed as inhibition constant; format: cell-based
[2] = target: T1, Prostaglandin E2 receptor EP2 subtype; assay: Potency index, ratio of PF-0418948 Ki to test compound Ki for binding affinity to human EP2
[3] = target: T2, Prostaglandin E2 receptor EP4 subtype (Homo sapiens, UniProt P35408); assay: Binding affinity to EP4 receptor in human mast cell assessed as inhibition constant; format: cell-based
T2 sequence (P35408 whole entry): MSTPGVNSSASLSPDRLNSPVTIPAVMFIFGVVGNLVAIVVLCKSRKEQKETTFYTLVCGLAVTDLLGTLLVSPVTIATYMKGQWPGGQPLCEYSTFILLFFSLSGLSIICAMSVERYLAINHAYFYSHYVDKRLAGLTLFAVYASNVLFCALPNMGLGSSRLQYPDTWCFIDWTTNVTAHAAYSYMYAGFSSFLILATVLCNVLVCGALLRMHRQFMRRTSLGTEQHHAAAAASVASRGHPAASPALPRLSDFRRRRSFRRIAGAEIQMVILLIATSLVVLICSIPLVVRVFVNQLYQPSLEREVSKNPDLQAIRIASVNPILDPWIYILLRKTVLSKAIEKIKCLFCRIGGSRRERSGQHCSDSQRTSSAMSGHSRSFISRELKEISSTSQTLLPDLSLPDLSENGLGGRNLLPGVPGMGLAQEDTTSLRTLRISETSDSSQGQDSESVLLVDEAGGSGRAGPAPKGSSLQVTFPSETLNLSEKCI

[4] = target: T3, Prostaglandin D2 receptor (Homo sapiens, UniProt Q13258); assay: Binding affinity to DP1 receptor in human mast cell assessed as inhibition constant; format: cell-based
T3 sequence (Q13258 whole entry): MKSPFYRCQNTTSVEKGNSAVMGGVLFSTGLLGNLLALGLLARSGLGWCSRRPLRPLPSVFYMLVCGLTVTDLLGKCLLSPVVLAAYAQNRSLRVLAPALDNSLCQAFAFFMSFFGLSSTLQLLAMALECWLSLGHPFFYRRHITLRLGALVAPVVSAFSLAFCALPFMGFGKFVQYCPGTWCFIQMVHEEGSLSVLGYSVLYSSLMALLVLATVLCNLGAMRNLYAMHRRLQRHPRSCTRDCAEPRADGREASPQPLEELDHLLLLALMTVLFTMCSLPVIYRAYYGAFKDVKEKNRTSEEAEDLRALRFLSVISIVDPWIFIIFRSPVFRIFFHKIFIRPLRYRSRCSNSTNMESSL

[5] = Solubility of the compound; format: ADME
[6] = Ratio of drug level in brain to plasma in C57BL/6 mouse at 3 mg/kg, ip by LC-MS/MS analysis; format: ADME, organism-based; conditions: read-out: BPR
[7] = target: T1, Prostaglandin E2 receptor EP2 subtype; assay: Binding affinity to human EP2 receptor expressed in C6 cells assessed as binding constant at 10 mins by TR-FRET cAMP functional assay; format: cell-based; conditions: filed as antagonist
[8] = Half life in mouse C57BL/6 plasma at 20 mg/kg,ip by LC-MS/MS analysis; format: ADME, organism-based; conditions: C57BL/6, mouse
[9] = Ratio of drug level in brain to plasma in C57BL/6 mouse at 20 mg/kg, ip by LC-MS/MS analysis; format: ADME, organism-based; conditions: read-out: BPR
[10] = Ratio of drug level in brain to plasma in pilocarpine-induced Sprague-Dawley rat at 25 mg/kg, ip after 6 hrs by LC-MS/MS analysis
[11] = target: T4, Prostaglandin E2 receptor EP1 subtype (Homo sapiens, UniProt P34995); assay: Binding affinity to EP1 receptor (unknown origin) assessed as inhibition constant
T4 sequence (P34995 whole entry): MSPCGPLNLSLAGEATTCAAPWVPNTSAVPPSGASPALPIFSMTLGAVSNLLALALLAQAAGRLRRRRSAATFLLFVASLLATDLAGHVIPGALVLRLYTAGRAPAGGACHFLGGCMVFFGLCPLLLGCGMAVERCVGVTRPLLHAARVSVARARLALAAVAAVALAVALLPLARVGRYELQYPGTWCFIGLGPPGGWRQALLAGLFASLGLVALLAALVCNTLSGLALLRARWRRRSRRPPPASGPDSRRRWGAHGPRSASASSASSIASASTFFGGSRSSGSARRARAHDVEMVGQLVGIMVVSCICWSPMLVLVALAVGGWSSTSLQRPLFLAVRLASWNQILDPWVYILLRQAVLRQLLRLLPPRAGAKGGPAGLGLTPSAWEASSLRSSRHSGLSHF

[12] = target: T2, Prostaglandin E2 receptor EP4 subtype; assay: Binding affinity to human EP4 receptor expressed in CHO cells assessed as inhibition constant; format: cell-based
[13] = target: T5, Prostaglandin E2 receptor EP3 subtype (Homo sapiens, UniProt P43115); assay: Binding affinity to EP3 receptor (unknown origin) assessed as inhibition constant
T5 sequence (P43115 whole entry): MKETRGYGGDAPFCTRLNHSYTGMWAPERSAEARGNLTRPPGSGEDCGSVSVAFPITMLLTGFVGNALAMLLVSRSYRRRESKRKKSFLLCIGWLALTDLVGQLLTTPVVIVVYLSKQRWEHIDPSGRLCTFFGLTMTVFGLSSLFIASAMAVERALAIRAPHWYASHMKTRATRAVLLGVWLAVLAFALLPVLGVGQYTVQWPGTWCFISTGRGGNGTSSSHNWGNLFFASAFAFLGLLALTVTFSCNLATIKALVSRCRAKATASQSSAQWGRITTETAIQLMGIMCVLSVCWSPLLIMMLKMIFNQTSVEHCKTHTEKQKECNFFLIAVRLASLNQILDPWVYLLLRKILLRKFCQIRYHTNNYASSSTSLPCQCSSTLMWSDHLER

[14] = target: T3, Prostaglandin D2 receptor; assay: Binding affinity to human DP1 receptor expressed in CHO cells assessed as inhibition constant; format: cell-based
[15] = Ratio of drug level in brain to plasma in C57BL/6 mouse at 10 mg/kg, po by LC-MS/MS analysis; format: ADME, organism-based; conditions: read-out: BPR
[16] = Half life in C57BL/6 mouse at 10 mg/kg, po by LC-MS/MS analysis; format: ADME, organism-based; conditions: in vivo
[17] = target: T6, Prostaglandin D2 receptor (Homo sapiens) (UniProt Q13258); assay: Binding affinity to human DP1 receptor expressed in rat C6 cells assessed as binding constant; format: cell-based; conditions: filed as antagonist
T6 sequence (whole entry): T3 sequence (Q13258 whole entry)

[18] = target: T2, Prostaglandin E2 receptor EP4 subtype; assay: Binding affinity to EP4 receptor (unknown origin) assessed as binding constant; conditions: filed as antagonist
[19] = target: T1, Prostaglandin E2 receptor EP2 subtype; assay: Binding affinity to human EP2 receptor expressed in rat C6 cells assessed as binding constant; format: cell-based; conditions: filed as antagonist
[20] = Aqueous solubility of compound in PBS buffer at pH 7.4 by nephelometric analysis; format: ADME

T1 sequence (P43116 whole entry): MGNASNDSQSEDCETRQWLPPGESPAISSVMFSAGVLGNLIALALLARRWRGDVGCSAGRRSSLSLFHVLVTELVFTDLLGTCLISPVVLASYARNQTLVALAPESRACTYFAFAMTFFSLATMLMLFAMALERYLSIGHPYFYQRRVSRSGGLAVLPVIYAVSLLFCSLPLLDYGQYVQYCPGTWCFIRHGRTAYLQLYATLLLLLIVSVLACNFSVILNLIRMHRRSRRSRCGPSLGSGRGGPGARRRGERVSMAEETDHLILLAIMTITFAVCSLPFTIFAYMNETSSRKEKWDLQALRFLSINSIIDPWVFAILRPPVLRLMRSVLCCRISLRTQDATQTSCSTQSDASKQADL

Ki [1]: 0.00063 µM
Ratio Ki [2]: 10
Ki [3]: 16.3 µM
Ki [4]: 1.2 µM
SMILES: COc1ccc(C(=O)N2CCC(COc3ccc(-c4ccc(C#N)cc4)cc3)(C(=O)O)C2)cc1 (stereo not given)

solubility [5]: 45 µM (≈ 17.8 µg/mL)
Kp [6]: 0.3
SMILES: COc1cc(/C=C/C(=O)NCCn2c(C)cc3ccccc32)cc(OC)c1OC

Kb [7]: 0.0132 µM
half-life [8]: 2.8 h
Kp [9]: 0.02
Kp at 6 h [10]: 0.03
SMILES: Cc1[nH]c2ccccc2c1CCNC(=O)c1ccc(-c2c[nH]cn2)cc1

Ki [11]: > 10 µM
Ki [12]: > 10 µM
Ki [13]: > 10 µM
Ki [14]: > 10 µM
SMILES: COc1ccc2cc(OCC3(C(=O)O)CN(C(=O)c4ccc(F)cc4)C3)ccc2c1 [PF-04418948]

Kp [15]: 0.02
half-life [16]: 10.5 h
Kb [17]: 18 µM
Kb [18]: 15 µM
Kb [19]: 0.0485 µM
solubility kinetic [20]: 500 µM (≈ 173 µg/mL)
SMILES: Cc1cc2ccccc2n1CCNC(=O)c1ccc(-c2nnn[nH]2)cc1
